Data from ChEMBL document CHEMBL4800722, “Data for DCP probe BI 605906” (2021).

Legend:
[1] = target: Proto-oncogene tyrosine-protein kinase receptor Ret (Homo sapiens) (UniProt P07949); assay: RET Invitrogen Lab (UK) kinase screen (BI)
[2] = system: Receptor-type tyrosine-protein kinase FLT3 (Homo sapiens), P36888 [UNDEFINED MUTATION]; settings: Compound concentration 1.0 uM
[3] = target: Fibroblast growth factor receptor 3 (Homo sapiens) (UniProt P22607); settings: Compound concentration 1.0 uM
[4] = target: Calcium/calmodulin-dependent protein kinase kinase 1 (Homo sapiens) (UniProt Q8N5S9); settings: Compound concentration 1.0 uM
[5] = target: Aurora kinase B (Homo sapiens) (UniProt Q96GD4); assay: AURORA B DUNDEE kinase screen (BI); settings: Compound concentration 10.0 uM
[6] = target: Fibroblast growth factor receptor 1 (Homo sapiens) (UniProt P11362)
Chain of Fibroblast growth factor receptor 1 (Homo sapiens) (P11362 22-822 limits assumed): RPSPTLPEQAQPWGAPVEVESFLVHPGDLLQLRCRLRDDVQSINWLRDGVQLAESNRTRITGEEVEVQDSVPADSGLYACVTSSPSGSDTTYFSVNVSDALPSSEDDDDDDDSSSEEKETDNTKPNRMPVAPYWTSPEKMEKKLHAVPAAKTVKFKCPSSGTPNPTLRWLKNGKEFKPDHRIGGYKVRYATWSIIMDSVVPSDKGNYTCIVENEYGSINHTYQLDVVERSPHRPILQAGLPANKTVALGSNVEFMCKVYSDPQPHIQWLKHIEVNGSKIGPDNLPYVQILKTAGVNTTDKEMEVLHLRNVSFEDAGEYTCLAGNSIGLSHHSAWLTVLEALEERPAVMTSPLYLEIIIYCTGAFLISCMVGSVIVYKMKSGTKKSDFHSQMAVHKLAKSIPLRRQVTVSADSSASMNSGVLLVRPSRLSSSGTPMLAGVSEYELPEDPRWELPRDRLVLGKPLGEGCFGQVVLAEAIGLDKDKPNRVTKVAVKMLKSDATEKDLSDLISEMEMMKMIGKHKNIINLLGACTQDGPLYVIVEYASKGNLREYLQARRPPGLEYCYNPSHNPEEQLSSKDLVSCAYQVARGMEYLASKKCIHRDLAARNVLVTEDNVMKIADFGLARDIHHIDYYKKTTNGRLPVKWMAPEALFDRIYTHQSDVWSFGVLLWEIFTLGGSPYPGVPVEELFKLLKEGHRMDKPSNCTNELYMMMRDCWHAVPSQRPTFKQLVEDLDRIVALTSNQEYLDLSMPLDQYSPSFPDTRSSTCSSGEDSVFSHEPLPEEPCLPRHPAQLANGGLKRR

[7] = target: Myosin-IIIa (Homo sapiens) (UniProt Q8NEV4); settings: Compound concentration 1.0 uM
[8] = target: Muscarinic acetylcholine receptor M2 (Homo sapiens) (UniProt P08172); settings: Compound concentration 10.0 uM
[9] = target: Ephrin type-A receptor 6 (Homo sapiens) (UniProt Q9UF33); settings: Compound concentration 1.0 uM
[10] = target: Tyrosine-protein kinase receptor UFO (Homo sapiens) (UniProt P30530)
Chain of Tyrosine-protein kinase receptor UFO (Homo sapiens) (P30530 whole entry): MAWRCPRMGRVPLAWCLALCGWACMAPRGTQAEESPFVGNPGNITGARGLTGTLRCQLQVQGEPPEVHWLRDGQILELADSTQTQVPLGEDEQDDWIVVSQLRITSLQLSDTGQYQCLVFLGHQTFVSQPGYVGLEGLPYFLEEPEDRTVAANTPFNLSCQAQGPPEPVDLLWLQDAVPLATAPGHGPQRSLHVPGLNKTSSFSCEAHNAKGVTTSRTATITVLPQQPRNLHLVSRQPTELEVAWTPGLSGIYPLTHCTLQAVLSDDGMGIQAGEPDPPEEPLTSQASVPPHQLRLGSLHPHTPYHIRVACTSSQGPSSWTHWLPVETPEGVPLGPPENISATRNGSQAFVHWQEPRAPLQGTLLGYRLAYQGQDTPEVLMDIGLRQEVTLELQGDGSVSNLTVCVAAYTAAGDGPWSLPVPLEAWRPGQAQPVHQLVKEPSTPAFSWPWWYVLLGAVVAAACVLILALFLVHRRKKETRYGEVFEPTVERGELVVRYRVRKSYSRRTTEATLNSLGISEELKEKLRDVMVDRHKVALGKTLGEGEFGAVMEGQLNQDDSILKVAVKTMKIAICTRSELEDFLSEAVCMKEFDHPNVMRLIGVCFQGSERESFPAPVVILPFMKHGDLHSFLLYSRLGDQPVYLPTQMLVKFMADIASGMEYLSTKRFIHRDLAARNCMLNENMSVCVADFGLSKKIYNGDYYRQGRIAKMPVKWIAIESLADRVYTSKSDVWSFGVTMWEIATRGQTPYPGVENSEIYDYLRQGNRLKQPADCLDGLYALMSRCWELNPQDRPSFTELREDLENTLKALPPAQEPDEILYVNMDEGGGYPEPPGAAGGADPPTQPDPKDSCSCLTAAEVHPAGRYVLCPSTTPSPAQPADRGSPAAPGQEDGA

[11] = target: Fibroblast growth factor receptor 4 (Homo sapiens) (UniProt P22455); settings: Compound concentration 1.0 uM
[12] = target: Protein kinase C eta type (Homo sapiens) (UniProt P24723); settings: Compound concentration 1.0 uM
[13] = target: Mitogen-activated protein kinase kinase kinase 3 (Homo sapiens) (UniProt Q99759); settings: Compound concentration 1.0 uM
Chain of Mitogen-activated protein kinase kinase kinase 3 (Homo sapiens) (Q99759 whole entry): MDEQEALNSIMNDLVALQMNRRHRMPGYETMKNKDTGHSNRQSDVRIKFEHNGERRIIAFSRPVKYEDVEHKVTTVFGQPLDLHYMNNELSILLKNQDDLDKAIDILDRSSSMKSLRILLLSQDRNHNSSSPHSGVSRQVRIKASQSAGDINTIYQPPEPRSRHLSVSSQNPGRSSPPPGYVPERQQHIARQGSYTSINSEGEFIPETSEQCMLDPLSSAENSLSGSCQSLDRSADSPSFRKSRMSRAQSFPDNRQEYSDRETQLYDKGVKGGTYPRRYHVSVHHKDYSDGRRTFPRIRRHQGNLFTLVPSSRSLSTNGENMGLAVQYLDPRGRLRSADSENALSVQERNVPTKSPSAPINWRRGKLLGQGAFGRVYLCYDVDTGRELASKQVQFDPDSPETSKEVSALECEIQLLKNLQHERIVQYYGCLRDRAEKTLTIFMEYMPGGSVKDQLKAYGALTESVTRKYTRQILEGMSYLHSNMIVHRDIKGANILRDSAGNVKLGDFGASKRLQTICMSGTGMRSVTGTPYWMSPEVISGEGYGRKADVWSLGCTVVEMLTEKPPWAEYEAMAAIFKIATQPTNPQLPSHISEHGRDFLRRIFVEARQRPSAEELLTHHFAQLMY

[14] = target: RAC-beta serine/threonine-protein kinase (Homo sapiens) (UniProt P31751); assay: PKB-BETA DUNDEE kinase screen (BI); settings: Compound concentration 10.0 uM
[15] = target: Phosphatidylinositol 4-phosphate 3-kinase C2 domain-containing subunit alpha (Homo sapiens) (UniProt O00443); settings: Compound concentration 1.0 uM
[16] = target: Fibroblast growth factor receptor 2 (Homo sapiens) (UniProt P21802); settings: Compound concentration 1.0 uM
[17] = target: Bone morphogenetic protein receptor type-1B (Homo sapiens) (UniProt O00238); assay: BMPR1B (ALK6) Invitrogen Lab (UK) kinase screen (BI); settings: Compound concentration 1.0 uM
[18] = target: Histamine H3 receptor (Homo sapiens) (UniProt Q9Y5N1); settings: Compound concentration 10.0 uM
[19] = target: Serine/threonine-protein kinase 3 (Homo sapiens) (UniProt Q13188); assay: STK3 Invitrogen Lab (UK) kinase screen (BI); settings: Compound concentration 1.0 uM
[20] = target: Nicotinic Acetylcholine Receptor (Homo sapiens) (UniProt P02708+P07510+P11230+P17787+P30926+P32297+P43681+Q07001+Q15822+Q9UGM1+Q15825+P30532+Q04844+P36544+Q9GZZ6+Q05901); settings: Compound concentration 10.0 uM
[21] = target: Ephrin type-A receptor 1 (Homo sapiens) (UniProt P21709); settings: Compound concentration 1.0 uM
Chain of Ephrin type-A receptor 1 (Homo sapiens) (P21709 whole entry): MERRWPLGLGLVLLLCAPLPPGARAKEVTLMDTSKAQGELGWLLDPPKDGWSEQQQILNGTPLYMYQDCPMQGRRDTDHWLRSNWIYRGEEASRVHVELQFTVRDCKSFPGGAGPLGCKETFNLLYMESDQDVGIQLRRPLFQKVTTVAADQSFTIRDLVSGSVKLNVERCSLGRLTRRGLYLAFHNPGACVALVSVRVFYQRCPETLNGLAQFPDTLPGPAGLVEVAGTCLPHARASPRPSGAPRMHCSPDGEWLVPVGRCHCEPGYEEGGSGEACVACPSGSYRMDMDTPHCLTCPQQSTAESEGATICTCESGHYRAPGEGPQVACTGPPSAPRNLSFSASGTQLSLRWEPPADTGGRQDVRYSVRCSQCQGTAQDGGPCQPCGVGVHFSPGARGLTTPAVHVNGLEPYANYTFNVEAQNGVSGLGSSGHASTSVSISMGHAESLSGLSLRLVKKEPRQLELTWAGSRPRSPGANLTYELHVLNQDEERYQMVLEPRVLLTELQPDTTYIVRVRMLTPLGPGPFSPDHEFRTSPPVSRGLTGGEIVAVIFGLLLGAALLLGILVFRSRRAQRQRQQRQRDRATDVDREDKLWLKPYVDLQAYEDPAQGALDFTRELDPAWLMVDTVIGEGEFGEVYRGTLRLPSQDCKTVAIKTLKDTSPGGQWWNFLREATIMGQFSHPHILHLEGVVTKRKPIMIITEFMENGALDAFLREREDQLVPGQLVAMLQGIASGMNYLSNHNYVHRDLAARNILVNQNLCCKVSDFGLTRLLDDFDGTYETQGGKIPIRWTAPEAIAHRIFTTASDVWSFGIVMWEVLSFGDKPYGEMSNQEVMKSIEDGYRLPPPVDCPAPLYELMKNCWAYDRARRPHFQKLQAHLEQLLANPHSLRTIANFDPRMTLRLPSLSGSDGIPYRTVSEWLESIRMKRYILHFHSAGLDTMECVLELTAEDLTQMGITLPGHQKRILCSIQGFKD

[22] = target: Calcium/calmodulin-dependent protein kinase type II subunit alpha (Homo sapiens) (UniProt Q9UQM7); settings: Compound concentration 1.0 uM
[23] = target: Mitogen-activated protein kinase 12 (Homo sapiens) (UniProt P53778); settings: Compound concentration 1.0 uM
[24] = target: Serine/threonine-protein kinase Chk2 (Homo sapiens) (UniProt O96017); assay: CHEK2 Invitrogen Lab (UK) kinase screen (BI); settings: Compound concentration 1.0 uM
[25] = target: Serine/threonine-protein kinase NLK (Homo sapiens) (UniProt Q9UBE8); settings: Compound concentration 1.0 uM
[26] = target: Beta-3 adrenergic receptor (Homo sapiens) (UniProt P13945); settings: Compound concentration 10.0 uM
[27] = target: Non-receptor tyrosine-protein kinase TYK2 (Homo sapiens) (UniProt P29597); settings: Compound concentration 1.0 uM
[28] = target: Ephrin type-A receptor 4 (Homo sapiens) (UniProt P54764); settings: Compound concentration 1.0 uM
[29] = target: Cytoplasmic tyrosine-protein kinase BMX (Homo sapiens) (UniProt P51813); assay: BMX Invitrogen Lab (UK) kinase screen (BI); settings: Compound concentration 1.0 uM
Chain of Cytoplasmic tyrosine-protein kinase BMX (Homo sapiens) (P51813 whole entry): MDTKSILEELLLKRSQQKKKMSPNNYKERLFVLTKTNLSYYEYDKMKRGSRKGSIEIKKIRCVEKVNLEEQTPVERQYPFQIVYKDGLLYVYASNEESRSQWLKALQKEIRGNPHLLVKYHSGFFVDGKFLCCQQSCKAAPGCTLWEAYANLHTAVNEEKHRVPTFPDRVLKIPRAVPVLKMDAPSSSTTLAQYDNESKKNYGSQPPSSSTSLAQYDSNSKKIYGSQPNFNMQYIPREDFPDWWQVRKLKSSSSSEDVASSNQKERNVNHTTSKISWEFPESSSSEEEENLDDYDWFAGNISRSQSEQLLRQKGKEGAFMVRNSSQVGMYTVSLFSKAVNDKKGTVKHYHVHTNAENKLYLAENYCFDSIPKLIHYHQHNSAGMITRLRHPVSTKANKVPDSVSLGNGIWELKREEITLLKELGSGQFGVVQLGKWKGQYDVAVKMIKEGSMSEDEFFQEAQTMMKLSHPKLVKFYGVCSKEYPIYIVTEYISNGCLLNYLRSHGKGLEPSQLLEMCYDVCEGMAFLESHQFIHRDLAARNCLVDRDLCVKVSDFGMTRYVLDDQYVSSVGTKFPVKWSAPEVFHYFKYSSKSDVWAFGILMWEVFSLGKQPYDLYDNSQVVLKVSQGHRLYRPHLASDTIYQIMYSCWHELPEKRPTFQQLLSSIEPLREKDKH

[30] = target: Histamine H2 receptor (Homo sapiens) (UniProt P25021); settings: Compound concentration 10.0 uM
[31] = target: Kappa-type opioid receptor (Homo sapiens) (UniProt P41145); settings: Compound concentration 10.0 uM
[32] = target: Myosin-IIIb (Homo sapiens) (UniProt Q8WXR4); settings: Compound concentration 1.0 uM
[33] = target: cAMP-dependent protein kinase catalytic subunit beta (Homo sapiens) (UniProt P22694); assay: PRKACB (PRKAC BET Invitrogen Lab (UK) kinase screen (BI); settings: Compound concentration 1.0 uM
[34] = target: Receptor tyrosine-protein kinase erbB-4 (Homo sapiens) (UniProt Q15303); settings: Compound concentration 1.0 uM
[35] = target: Calcitonin-gene-related peptide receptor, CALCRL/RAMP1 (Homo sapiens) (UniProt O60894+Q16602)
[36] = target: MAP kinase-activated protein kinase 2 (Homo sapiens) (UniProt P49137); assay: MAPKAPK2 DUNDEE kinase screen (BI); settings: Compound concentration 10.0 uM
[37] = target: Ribosomal protein S6 kinase alpha-6 (Homo sapiens) (UniProt Q9UK32); settings: Compound concentration 1.0 uM
[38] = target: Serine/threonine-protein kinase Nek8 (Homo sapiens) (UniProt Q86SG6); settings: Compound concentration 1.0 uM
[39] = target: Interferon-induced, double-stranded RNA-activated protein kinase (Homo sapiens) (UniProt P19525); settings: Compound concentration 1.0 uM
[40] = target: Serine/threonine-protein kinase MRCK gamma (Homo sapiens) (UniProt Q6DT37); assay: CDC42 BPG (MRCKG) Invitrogen Lab (UK) kinase screen (BI); settings: Compound concentration 1.0 uM
[41] = target: Non-receptor tyrosine-protein kinase TNK1 (Homo sapiens) (UniProt Q13470); settings: Compound concentration 1.0 uM
[42] = target: Mitogen-activated protein kinase 8 (Homo sapiens) (UniProt P45983); assay: JNK1A1SAPK1C DUNDEE kinase screen (BI); settings: Compound concentration 10.0 uM

Chain of Proto-oncogene tyrosine-protein kinase receptor Ret (Homo sapiens) (P07949 whole entry): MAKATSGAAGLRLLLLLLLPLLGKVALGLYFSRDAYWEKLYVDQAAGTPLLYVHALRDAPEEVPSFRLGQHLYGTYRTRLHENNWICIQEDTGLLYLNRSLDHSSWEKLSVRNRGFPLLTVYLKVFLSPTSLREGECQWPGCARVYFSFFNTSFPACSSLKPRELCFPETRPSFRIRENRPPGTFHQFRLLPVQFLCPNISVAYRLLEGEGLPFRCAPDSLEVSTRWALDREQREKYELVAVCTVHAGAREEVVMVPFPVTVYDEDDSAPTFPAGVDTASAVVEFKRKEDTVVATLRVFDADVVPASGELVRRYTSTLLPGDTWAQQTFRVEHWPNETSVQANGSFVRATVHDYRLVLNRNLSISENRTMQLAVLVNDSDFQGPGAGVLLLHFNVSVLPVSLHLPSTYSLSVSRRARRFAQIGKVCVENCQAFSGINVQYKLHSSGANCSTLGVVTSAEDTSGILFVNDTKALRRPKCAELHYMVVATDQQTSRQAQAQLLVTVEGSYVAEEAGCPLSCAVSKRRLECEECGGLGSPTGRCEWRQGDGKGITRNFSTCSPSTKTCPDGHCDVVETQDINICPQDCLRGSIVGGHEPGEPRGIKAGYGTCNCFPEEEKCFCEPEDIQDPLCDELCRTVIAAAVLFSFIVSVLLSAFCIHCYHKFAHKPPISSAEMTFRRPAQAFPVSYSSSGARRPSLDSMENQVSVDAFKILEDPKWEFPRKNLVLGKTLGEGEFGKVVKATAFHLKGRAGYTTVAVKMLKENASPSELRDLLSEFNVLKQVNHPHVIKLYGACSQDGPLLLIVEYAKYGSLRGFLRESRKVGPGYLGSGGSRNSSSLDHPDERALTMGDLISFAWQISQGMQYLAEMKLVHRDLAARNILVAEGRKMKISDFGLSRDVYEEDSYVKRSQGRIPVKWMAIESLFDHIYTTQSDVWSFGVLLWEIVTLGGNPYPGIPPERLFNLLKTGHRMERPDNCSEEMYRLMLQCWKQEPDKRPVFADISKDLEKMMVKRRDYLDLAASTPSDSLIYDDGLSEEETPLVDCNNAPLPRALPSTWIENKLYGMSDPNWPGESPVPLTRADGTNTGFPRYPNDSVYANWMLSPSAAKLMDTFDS

## CCC(F)(F)c1cc(N2CCC(S(C)(=O)=O)CC2)nc2sc(C(N)=O)c(N)c12 [BI-605906]
[1]; Compound concentration 1.0 uM
  residual activity: 60%
[1]; Compound concentration 10.0 uM
  residual activity: 32%
[2]
  residual activity: 101%
[3]
  residual activity: 96%
[4]
  residual activity: 93%
[5]
  residual activity: 60.9%
[6]; Compound concentration 1.0 uM
  residual activity: 84%
[6]; Compound concentration 10.0 uM
  residual activity: 91%
[7]
  residual activity: 92%
[8]
  inhibition: 8%
[9]
  residual activity: 91%
[10]; Compound concentration 1.0 uM
  residual activity: 98%
[10]; Compound concentration 10.0 uM
  residual activity: 85%
[11]
  residual activity: 96%
[12]
  residual activity: 100%
[13]
  residual activity: 98%
[14]
  residual activity: 98.1%
[15]
  residual activity: 97%
[16]
  residual activity: 94%
[17]
  residual activity: 74%
[18]
  inhibition: 0.2%
[19]
  residual activity: 103%
[20]
  residual activity: 101%
[21]
  residual activity: 82%
[22]
  residual activity: 100%
[23]
  residual activity: 99%
[24]
  residual activity: 79%
[25]
  residual activity: 93%
[26]
  inhibition: 18%
[27]
  residual activity: 93%
[28]
  residual activity: 93%
[29]
  residual activity: 88%
[30]
  residual activity: 94%
[31]
  inhibition: 8.09%
[32]
  residual activity: 90%
[33]
  residual activity: 77%
[34]
  residual activity: 94%
[35]; Compound concentration 10.0 uM
  residual activity: 99%
[35]; Compound concentration 100.0 uM
  residual activity: 96%
[36]
  residual activity: 94.5%
[37]
  residual activity: 98%
[38]
  residual activity: 95%
[39]
  residual activity: 96%
[40]
  residual activity: 111%
[41]
  residual activity: 92%
[42]
  residual activity: 93.8%
